Data from publication PMC4012445, “Spirocyclic Drimanes from the Marine Fungus Stachybotrys sp. Strain MF347” (Marine Drugs, 2014).
Where a name gives a salt, the structure may show the parent alone. Read-outs that look alike come from different tables or passages of the source.

Assays:
[1] = test system: Bacillus subtilis (DSM 347); test: Antibiotic activity against Bacillus subtilis; format: cell-based; conditions: DSM347, growth inhibition, 0.1–50 µM analyzed twice in duplicates, read-out: IC50, antibiotic activity, B. subtilis
Experimental: (§1) The antimicrobial activities of 1–13 against the bacterium Bacillus subtilis (DSM 347) and the human pathogenic yeast Candida albicans (DSM 1386) were determined according to Ohlendorf et al., 2012 [26].The bioassays using the clinically relevant bacterial strains Staphylococcus epidermidis (DSM 20044), the methicillin-resistant Staphylococcus aureus (MRSA) (DSM 18827), and Klebsiella pneumoniae DSM 30104 were performed as described by Silber et al., 2013 [27]. S. aureus and K. pneumoniae were investigated in the same manner as S. epidermidis. […] The concentration of the compounds used in the initial bioassays was 100 µM (antibiotic tests), 50 µM (cytotoxic tests), and 10 µM (enzymatic tests), respectively. […] Positive controls were carried out with chloramphenicol (bacteria), nystatin (yeast), clotrimazole (fungi), tamoxifen citrate (cell lines), rolipram (PDE-4B2), huperzine (AchE), and TDZD-8 (GSK-3β).

[2] = test system: Staphylococcus epidermidis (DSM 20044); test: Antibiotic activity against Staphylococcus epidermidis; format: cell-based; conditions: DSM20044, growth inhibition, 0.1–50 µM analyzed twice in duplicates, read-out: IC50, antibiotic activity, S. epidermidis
Experimental: as §1

[3] = test system: methicillin-resistant Staphylococcus aureus (MRSA) (DSM 18827); test: Antibiotic activity against methicillin-resistant Staphylococcus aureus; format: cell-based; conditions: read-out: IC50, S. aureus MRSA
Experimental: as §1

[4] = Cytotoxic activity against NIH-3T3; format: cell-based
Experimental: The concentration of the compounds used in the initial bioassays was 100 µM (antibiotic tests), 50 µM (cytotoxic tests), and 10 µM (enzymatic tests), respectively. […] Positive controls were carried out with chloramphenicol (bacteria), nystatin (yeast), clotrimazole (fungi), tamoxifen citrate (cell lines), rolipram (PDE-4B2), huperzine (AchE), and TDZD-8 (GSK-3β).

[5] = growth inhibition, 0.1–50 µM analyzed twice in duplicates
[6] = NIH-3T3 fibroblast cells, mouse fibroblasts cell line, 0.1–50 µM analyzed twice in duplicates, read-out: IC50, cytotoxic activity, NIH-3T3
[7] = human, HepG2 hepatocellular carcinoma cells

Compound	IC50 [1] [µM]	IC50 [2] [µM]	IC50 [3] [µM]	IC50 [3, 5] [µM]	IC50 [4, 6] [µM]	IC50 (in vitro; [7]) [µM]	IC50 ([4]; mouse fibroblasts cell line, 0.1–50 µM analyzed twice in duplicates, read-out: IC50, cytotoxic activity, NIH-3T3) [µM]	IC50 (in vitro) [µM]	IC50 ([4]; mouse) [µM]	IC50 (in vitro; human) [µM]
O=C(N[C@H](CO)[C@H](O)c1ccc([N+](=O)[O-])cc1)C(Cl)Cl [Chloramphenicol, chloramphenicol, reference compound]	1.45	1.81	2.46							
CC1CCC2C(C)(C)C(O)CCC2(C)C12Cc1c(O)cc3c(c1O2)CN(C1OCc2cc(O)c4c(c21)OC1(C4)C(C)CCC2C(C)(C)C(O)CCC21C)C3=O (stereo not shown) [Compound 2, stachyin B]	1.42	1.02		1.75	13	14.3				
C[C@H]1CC[C@@H]2C(C)(C)[C@@H](O)[C@H](O)C[C@@]2(C)[C@]12Cc1c(O)cc3c(c1O2)CN(CCCCC(C(=O)O)N1Cc2c(cc(O)c4c2O[C@@]2(C4)[C@@H](C)CC[C@@H]4C(C)(C)[C@@H](O)[C@@H](O)C[C@]42C)C1=O)C3=O (stereo partly shown) [Compound 11, stachybocin B]	1.77	4.44		3.94	> 50	> 50				
C[C@H]1CC[C@@H]2C(C)(C)[C@@H](O)CC[C@@]2(C)[C@]12Cc1c(O)cc3c(c1O2)CN(CCCCC(C(=O)O)N1Cc2c(cc(O)c4c2O[C@@]2(C4)[C@@H](C)CC[C@@H]4C(C)(C)[C@@H](O)CC[C@]42C)C1=O)C3=O (stereo partly shown) [Compound 12, stachybocin A]	2.03	2.84	3.71				> 50	> 50		
CC(C)=CCC/C(C)=C/CC/C(C)=C/Cc1c(O)cc(C)c(C=O)c1O [Compound 13, ilicicolin B]	1.06	3.18		0.74	30	> 50				
CC/C(=C(\c1ccccc1)c1ccc(OCCN(C)C)cc1)c1ccccc1 [tamoxifen citrate, reference compound]									16.4	17.9
